US8697742B2, “BCRP/ABCG2 inhibitor” (Kabushiki Kaisha Yakult Honsha, priority 2005, dated 2014)
In brackets after ≈: the same amount, converted by molar mass. Structures can show the parent of a compound that is named as a salt.

tested on: A549/SN-38-4 cells; experiment: Effect of overcoming SN-38 resistance of BCRP-expressing A549/SN-38-4 cells; type: cell-based, human; conditions: Homo sapiens, A549, 48 h, concentration for 50% reduction of relative SN-38 resistance value (IC50 A549/SN-38-4 / IC50 A549); 48 hours culture with SN-38; read-out: Effect of overcoming resistance EC50
Protocol: The human lung cancer A549 cells or the A549/SN-38-4 cells were suspended in a Ham's F-12 medium containing 10% FBS, 100 U/mL of penicillin, and 100 μg/mL of streptomycin (10% FBS/Ham's F-12), and the resultant suspension was inoculated into a 96-well microplate (2×10^3 cells/50 μL/well), followed by culturing at 5% CO2 and 37° C. overnight. […] After completion of culturing, the number of viable cells was counted by use of a viable cell counting reagent [TetraColor ONE (trademark), product of Seikagaku Corporation] according to the attached instruction manual. […] The greater the relative resistance value, the higher the level of acquired resistance.

Row | Compound | EC50 [µg/mL]
1 | N#C/C(=C\c1ccnc2ccccc12)c1ccccn1 [Compound 85, (Z)-2-pyridin-2-yl-3-quinolin-4-yl-acrylonitrile] | 0.23 (≈ 0.894 µM)
2 | COc1ccc(/C(C#N)=C/c2ccc(N3CCN(CCO)CC3)s2)cc1OC [Compound 9, (Z)-2-(3,4-dimethoxy-phenyl)-3-{5-[4-(2-hydroxy-ethyl)-piperazin-1-yl]-thiophen-2-yl}-acrylonitrile] | 0.046 (≈ 0.115 µM)
3 | Cn1cc(/C=C(\C#N)c2nc3ccccc3s2)c2ccccc21 [Compound 92, (E)-2-benzothiazol-2-yl-3-(1-methyl-1H-indol-3-yl)-acrylonitrile] | 0.041 (≈ 0.13 µM)
4 | CCN(CC)C(=O)OC1CCN(c2ccc(/C=C(\C#N)c3ccc(OC)c(OC)c3)s2)CC1 [Compound 97, 1-[5-[(Z)-2-cyano-2-(3,4-dimethoxy-phenyl)-vinyl]-thiophen-2-yl]-piperidin-4-yl diethyl-carbamate] | 0.078 (≈ 0.166 µM)
5 | N#C/C(=C\c1cc2ccccc2o1)c1coc2ccccc12 [Compound 91, (Z)-3-benzofuran-2-yl-2-benzofuran-3-yl-acrylonitrile] | 0.52 (≈ 1.82 µM)
6 | N#C/C(=C\c1ccnc2ccccc12)c1cccs1 [Compound 87, (E)-3-quinolin-4-yl-2-thiophen-2-yl-acrylonitrile] | 0.046 (≈ 0.175 µM)
7 | COc1ccc(/C(C#N)=C/c2ccc(N3CCC(OC(=O)CN(C)C)CC3)s2)cc1OC.Cc1ccc(S(=O)(=O)O)cc1 [Compound 62, 1-[5-[(Z)-2-cyano-2-(3,4-dimethoxy-phenyl)-vinyl]-thiophen-2-yl]-piperidin-4-yl dimethylamino-acetate p-toluenesulfonate] | 0.062
8 | CCN(CC)CC(=O)OC1CCN(c2ccc(/C=C(\C#N)c3ccc(OC)c(OC)c3)s2)CC1.Cc1ccc(S(=O)(=O)O)cc1 [Compound 96, 1-[5-[(Z)-2-cyano-2-(3,4-dimethoxy-phenyl)-vinyl]-thiophen-2-yl]-piperidin-4-yl diethylamino-acetate p-toluenesulfonate] | 0.12
9 | N#C/C(=C\c1ccnc2ccccc12)c1ccsc1 [Compound 88, (Z)-3-quinolin-4-yl-2-thiophen-3-yl-acrylonitrile] | 0.07 (≈ 0.267 µM)

Further lines, results first:

Row | EC50 [µg/mL] | Compound
10 | 0.011 (≈ 0.0348 µM) | COc1ccc(/C(C#N)=C/c2ccnc3ccccc23)cc1OC [Compound 65, (Z)-2-(3,4-dimethoxy-phenyl)-3-quinolin-4-yl-acrylonitrile]
11 | 0.12 (≈ 0.323 µM) | COc1ccc(/C(C#N)=C/c2ccc(N(C)CCN(C)C)s2)cc1OC [Compound 10, (Z)-2-(3,4-dimethoxy-phenyl)-3-{5-[(2-dimethylamino-ethyl)-methyl-amino]-thiophen-2-yl}-acrylonitrile]
12 | 0.1 (≈ 0.313 µM) | COc1ccc(/C(C#N)=C/c2nc3ccccc3n2C)cc1OC [Compound 67, (Z)-2-(3,4-dimethoxy-phenyl)-3-(1-methyl-1H-benzimidazol-2-yl)-acrylonitrile]
13 | 0.039 (≈ 0.113 µM) | COc1ccc(/C(C#N)=C/c2ccc(N(C)CCO)s2)cc1OC [Compound 7, (Z)-2-(3,4-dimethoxy-phenyl)-3-{5-[(2-hydroxy-ethyl)-methyl-amino]-thiophen-2-yl}-acrylonitrile]
14 | 0.034 (≈ 0.1 µM) | COc1ccc(/C(C#N)=C/c2ccc(N3CCCCC3)o2)cc1OC [Compound 24, (Z)-2-(3,4-dimethoxy-phenyl)-3-(5-piperidin-1-yl-furan-2-yl)-acrylonitrile]
15 | 0.28 (≈ 0.7 µM) | COc1ccc(/C(C#N)=C/c2c3ccccc3c(Cl)c3ccccc23)cc1OC [Compound 93, (Z)-3-(10-chloro-anthracen-9-yl)-2-(3,4-dimethoxy-phenyl)-acrylonitrile]
16 | 0.19 (≈ 0.641 µM) | COc1ccc(/C=C(\C#N)c2ccc(OC)c(OC)c2)cn1 [Compound 35, (Z)-2-(3,4-dimethoxy-phenyl)-3-(6-methoxy-pyridin-3-yl)-acrylonitrile]
17 | 0.017 (≈ 0.0553 µM) | COc1ccc(/C(C#N)=C/c2ccc3c(c2)CCO3)cc1OC [Compound 75, (Z)-3-(2,3-dihydro-benzofuran-5-yl)-2-(3,4-dimethoxy-phenyl)-acrylonitrile]

same assay, conditions: Homo sapiens, A549, 48 h, read-out: Effect of overcoming resistance EC50, concentration for 50% reduction of relative SN-38 resistance value (IC50 A549/SN-38-4 / IC50 A549); 48 hours culture with SN-38

Row | Compound | EC50 [µg/mL]
18 | COc1ccc(/C(C#N)=C/c2cc3ccccc3c3ccccc23)cc1OC [Compound 95, (Z)-2-(3,4-dimethoxy-phenyl)-3-phenanthren-9-yl-acrylonitrile] | 0.008 (≈ 0.0219 µM)

same assay, conditions: concentration for 50% reduction of relative SN-38 resistance value (IC50 A549/SN-38-4 / IC50 A549); 48 hours culture with SN-38

Row | Compound | Effect of overcoming resistance EC50 [µg/mL]
19 | COc1ccc(/C=C(\C#N)c2coc3ccccc23)cc1OC [Compound 72, (Z)-2-benzofuran-3-yl-3-(3,4-dimethoxy-phenyl)-acrylonitrile] | 0.011
20 | (E)-2-benzothiazol-1-yl-3-(3,4-dimethoxy-phenyl)-acrylonitrile [Compound 71] | 0.013
21 | COc1ccc(/C(C#N)=C/c2ccc(N3CCC(OC(=O)CCC(=O)O)CC3)o2)cc1OC [Compound 51, mono-(1-{5-[(Z)-2-cyano-2-(3,4-dimethoxy-phenyl)-vinyl]-furan-2-yl}-piperidin-4-yl)succinate] | 0.51
22 | COc1ccc(/C(C#N)=C/c2cc3ccccc3o2)cc1OC [Compound 69, (Z)-3-benzofuran-2-yl-(3,4-dimethoxy-phenyl)-acrylonitrile] | 0.043
23 | COc1ccc(/C(C#N)=C/c2ccc(N3CCC(OC(=O)CCC(=O)N4CCC(N5CCCCC5)CC4)CC3)s2)cc1OC.Cl [Compound 64, 1-[5-[(Z)-2-cyano-2-(3,4-dimethoxy-phenyl)-vinyl]-thiophen-2-yl]-piperidin-4-yl 4-[1,4′]bipiperidinyl-1′-yl-4-oxo-butylate hydrochloride] | 0.053
24 | COc1ccc(/C(C#N)=C/c2ccc(-c3cccc(N)c3)o2)cc1OC [Compound 22, (Z)-3-[5-(3-amino-phenyl)-furan-2-yl]-2-(3,4-dimethoxy-phenyl)-acrylonitrile] | 0.013

same assay, conditions: concentration for 50% reduction of relative SN-38 resistance value (IC50 A549/SN-38-4 / IC50 A549); 48 hours culture with SN-38; hydrochloride

Row | Effect of overcoming resistance EC50 [µg/mL] | Compound
25 | 0.11 | COc1ccc(/C(C#N)=C/c2ccc(N3CCN(CCO)CC3)o2)cc1OC [Compound 50, (Z)-2-(3,4-dimethoxy-phenyl)-3-{5-[4-(2-hydroxy-ethyl)-piperazin-1-yl]-furan-2-yl}-acrylonitrile hydrochloride]
26 | 0.12 | COc1ccc(/C=C(\C#N)c2ccc(OC)c(OC)c2)cn1 [Compound 37, (Z)-2-(3,4-dimethoxy-phenyl)-3-(6-methoxy-pyridin-3-yl)-acrylonitrile hydrochloride]
27 | 0.12 | COc1ccc(/C(C#N)=C/c2cccnc2)cc1OC [Compound 36, (Z)-2-(3,4-dimethoxy-phenyl)-3-pyridin-3-yl-acrylonitrile hydrochloride]
28 | 0.049 | COc1ccc(/C(C#N)=C/c2ccc(N3CCCCC3)s2)cc1OC [Compound 11, (Z)-2-(3,4-dimethoxy-phenyl)-3-(5-piperidin-1-yl-thiophen-2-yl)-acrylonitrile hydrochloride]
29 | 0.42 | COc1ccc(/C(C#N)=C/c2ccc(N3CCN(C)CC3)o2)cc1OC [Compound 29, (Z)-2-(3,4-dimethoxy-phenyl)-3-[5-(4-methyl-piperazin-1-yl)-furan-2-yl]-acrylonitrile hydrochloride]
30 | 0.03 | COc1ccc(/C=C(\C#N)c2ccccn2)cc1OC [Compound 47, (Z)-3-(3,4-dimethoxy-phenyl)-2-pyridin-2-yl-acrylonitrile hydrochloride]
